This data set deals with GENE-TOX genotoxicity assays, various organisms and cells. Kind of data set: GENE-TOX mutagenicity studies. The conditions noted are these: for call: Assay Type: In vivo carcinogenicity studies.
Setting [1] is: Species/Cell Type: Escherichia coli polA (W3110 vs P3478), Assay Type: Rec-assay, DNA effects (bacterial DNA repair), Assay Code: RE2+, Evaluation Type: Evaluation A (Pre-1980).
The mark [2] stands for this setting: Species/Cell Type: Escherichia coli polA (W3119 vs P3478), Assay Type: Rec-assay, DNA effects (bacterial DNA repair), Assay Code: RE1-, Evaluation Type: Evaluation A (Pre-1980).
[3] abbreviates: Species/Cell Type: Rodents, Sex: Male, Assay Type: Dominant lethal test, Assay Code: DLT-, Evaluation Type: Evaluation A (Pre-1980).
The mark [4] stands for this setting: Species/Cell Type: Salmonella typhimurium (one or more of the five standard strains: TA98, TA100, TA1535, TA1537, and TA1538), Assay Type: Histidine reverse gene mutation, Ames assay, Assay Code: SAL+, Evaluation Type: Evaluation A (Pre-1980).
The mark [5] stands for this setting: Species/Cell Type: Fischer rat embryo (RLV/1706) cells, Assay Type: Cell transformation, viral enhanced, Assay Code: CTR+, Evaluation Type: Evaluation A (Pre-1980).
Where [6] appears, read: Species/Cell Type: Mammalian polychromatic erythrocytes, Assay Type: Micronucleus test, chromosome aberrations, Assay Code: MNT+, Evaluation Type: Evaluation B (Post-1980).
The mark [7] stands for this setting: Species/Cell Type: Nonhuman, Assay Code: CCG+, Evaluation Type: Evaluation A (Pre-1980).
[8] abbreviates: Species/Cell Type: Salmonella typhimurium (one or more of the five standard strains: TA98, TA100, TA1535, TA1537, and TA1538), Assay Type: Histidine reverse gene mutation, Ames assay, Assay Code: SAL+*, Activation: With metabolic activation, Evaluation Type: Evaluation A (Pre-1980).
Setting [9] is: Species/Cell Type: Syrian hamster embryo (SA7/SHE) cells, Assay Type: Cell transformation, viral enhanced, Assay Code: CT7+, Evaluation Type: Evaluation A (Pre-1980).
Setting [10] is: Species/Cell Type: Neurospora crassa, Assay Type: Forward gene mutation, Assay Code: NEF+, Evaluation Type: Evaluation A (Pre-1980).
The mark [11] stands for this setting: Species/Cell Type: Bacillus subtilis (H17 vs M45), Assay Type: Rec-assay, spot test, DNA effects (bacterial DNA repair), Assay Code: REW+, Evaluation Type: Evaluation A (Pre-1980).
[12] abbreviates: Species/Cell Type: Salmonella typhimurium (one or more of the five standard strains: TA98, TA100, TA1535, TA1537, and TA1538), Assay Type: Histidine reverse gene mutation, Ames assay, Assay Code: SAL-, Evaluation Type: Evaluation A (Pre-1980).
Where [13] appears, read: Species/Cell Type: Drosophila melanogaster, Assay Type: Sex-linked recessive lethal gene mutation, Assay Code: SRLT, Evaluation Type: Evaluation A (Pre-1980).
[14] abbreviates: Species/Cell Type: Saccharomyces cerevisiae, Assay Type: Mitotic recombination or gene conversion, Assay Code: YEH-, Evaluation Type: Evaluation A (Pre-1980).

The values below come from PubChem BioAssay AID1259408 (Genetic Toxicology Data Bank (GENE-TOX), 2018).

Active and inactive are the calls of the source. No rule for the calls is given here.

With `COc1ccc(C[C@H](N)C(=O)N[C@H]2[C@@H](O)[C@H](n3cnc4c(N(C)C)ncnc43)O[C@@H]2CO)cc1`, the mutagenic call under setting [1] was “active; positive”; the mutagenic call under setting [2] was “inactive; negative”; the mutagenic call (Species/Cell Type: Glycine max (soybean), Assay Type: Gene mutation, Assay Code: GLMT, Evaluation Type: Evaluation A (Pre-1980)) is given as “no conclusion”; the mutagenic call under setting [3] is “inactive; negative”.

Turning to `CCCCCCCC(=O)Oc1c(I)cc(C#N)cc1I`, the mutagenic call (Species/Cell Type: Bacillus subtilis (H17 vs M45), Assay Type: Rec-assay, spot test, DNA effects (bacterial DNA repair), Assay Code: REWT, Evaluation Type: Evaluation A (Pre-1980)) is reported as “no conclusion”.

With `[N-]=[N+]=CC(=O)NCC(N)=O`, the mutagenic call runs as follows: (Species/Cell Type: Nonhuman, Assay Type: Sister-chromatid exchange (SCE) in vitro, Assay Code: SC2+D, Dose Response: With dose response, Evaluation Type: Evaluation B (Post-1980)) “active; positive”; under setting [4], “active; positive”.

For `Nc1ccc(-c2ccc(N)c(Cl)c2)cc1Cl`, the mutagenic call runs as follows: under setting [5], “active; positive”; (Species/Cell Type: Human diploid fibroblasts, Assay Type: Unscheduled DNA synthesis (UDS) in vitro, DNA effects, Assay Code: UDHT, Evaluation Type: Evaluation A (Pre-1980)) “no conclusion”; under setting [6], “active; positive”; under setting [8], “active; positive”; under setting [4], “active; positive”; under setting [9], “active; positive”. Moreover, the call under setting [7] was “active; positive”.

Turning to `COc1ccc(CCN2CCC(Nc3nc4ccccc4n3Cc3ccc(F)cc3)CC2)cc1`, the mutagenic call runs as follows: (Species/Cell Type: Human lymphocytes, Assay Type: Sister-chromatid exchange (SCE) in vitro, Assay Code: SCLT, Evaluation Type: Evaluation B (Post-1980)) “no conclusion”; (Species/Cell Type: Human, Assay Type: Sister-chromatid exchange (SCE) in vitro, Assay Code: SC1T, Evaluation Type: Evaluation B (Post-1980)) “no conclusion”; (Species/Cell Type: Mammalian polychromatic erythrocytes, Assay Type: Micronucleus test, chromosome aberrations, Assay Code: MNT-, Evaluation Type: Evaluation B (Post-1980)) “inactive; negative”.

In the case of `CCN(CC)CCn1nc2c3c(c(C)ccc31)Sc1cc(Cl)ccc1-2`, the mutagenic call is “inactive; negative” (Species/Cell Type: Drosophila melanogaster, Assay Type: Sex-linked recessive lethal gene mutation, Assay Code: SRL-, Evaluation Type: Evaluation A (Pre-1980)); “active; positive” (Species/Cell Type: Mouse lymphoma (L5178Y) cells, Assay Type: Forward gene mutation at the thymidine kinase (TK) locus, chromosome aberrations, Assay Code: L51+, Evaluation Type: Evaluation A (Pre-1980)); “active; positive” under setting [10]; “active; positive” under setting [8].

As to `OCNc1nc(NCO)nc(NCO)n1`, the mutagenic call (Species/Cell Type: Drosophila melanogaster, Assay Type: Sex-linked recessive lethal gene mutation, Assay Code: SRL+, Evaluation Type: Evaluation A (Pre-1980)) was “active; positive”.

Consider `O=C1C=C2C(=CCOC2O)O1` (centres undefined), for which the mutagenic call reads like this: under setting [11], “active; positive”; (Species/Cell Type: Human lymphocytes, Assay Type: Sister-chromatid exchange (SCE) in vitro, Assay Code: SCL+D, Dose Response: With dose response, Evaluation Type: Evaluation B (Post-1980)) “active; positive”; (Species/Cell Type: Human, Assay Type: Sister-chromatid exchange (SCE) in vitro, Assay Code: SC1+D, Dose Response: With dose response, Evaluation Type: Evaluation B (Post-1980)) “active; positive”; (Species/Cell Type: Nonhuman, Assay Type: Chromosome aberrations in vitro, Assay Code: CY&+, Evaluation Type: Evaluation A (Pre-1980)) “active; positive”; (Species/Cell Type: Nonhuman, Assay Type: Sister-chromatid exchange (SCE) in vitro, Assay Code: SC2-, Evaluation Type: Evaluation B (Post-1980)) “inactive; negative”; under setting [3], “inactive; negative”. In addition, the mutagenic call reads like this: (Species/Cell Type: Saccharomyces cerevisiae, Assay Type: Mitotic recombination or gene conversion, Assay Code: YEH+/-*, Activation: With metabolic activation, Evaluation Type: Evaluation A (Pre-1980)) “inactive; positive without activation, negative with activation”; under setting [12], “inactive; negative”. Further, the call (Species/Cell Type: Nonhuman, Assay Code: CCGT, Evaluation Type: Evaluation A (Pre-1980)) is given as “no conclusion”.

For `Nc1ccc2ccccc2c1`, the mutagenic call (Species/Cell Type: Chinese hamster ovary (CHO) cells, Assay Type: Forward gene mutation at the HPRT locus, Assay Code: CHO+, Evaluation Type: Evaluation B (Post-1980)) was “active; positive”; the mutagenic call under setting [13] is “no conclusion”; the mutagenic call under setting [1] is “active; positive”; the mutagenic call under setting [2] was “inactive; negative”; the mutagenic call (Species/Cell Type: Escherichia coli polA (W3119 vs P3478), Assay Type: Rec-assay, DNA effects (bacterial DNA repair), Assay Code: RE1T, Evaluation Type: Evaluation A (Pre-1980)) is “no conclusion”; the mutagenic call under setting [5] was “active; positive”. In addition, the mutagenic call is “active; positive” (Species/Cell Type: Mammalian polychromatic erythrocytes, Assay Type: Micronucleus test, chromosome aberrations, Assay Code: MNT+, Evaluation Type: Evaluation A (Pre-1980)); “inactive; negative” (Species/Cell Type: Mouse (BALB/c-3T3) cells, Assay Type: Cell transformation, Assay Code: CTB-, Evaluation Type: Evaluation A (Pre-1980)); “active; positive” (Species/Cell Type: Mouse embryo (AKR/ME) cells, Assay Type: Cell transformation, Assay Code: CTK+, Evaluation Type: Evaluation A (Pre-1980)); “inactive; negative” (Species/Cell Type: Mouse, Sex: Male, Assay Type: Sperm morphology, Assay Code: SPI-, Evaluation Type: Evaluation A (Pre-1980)); “active; positive” under setting [10]; “active; positive” (Species/Cell Type: Nonhuman, Assay Type: Sister-chromatid exchange (SCE) in vitro, Assay Code: SC2+D*, Activation: With metabolic activation, Dose Response: With dose response, Evaluation Type: Evaluation B (Post-1980)). For the same compound, the mutagenic call (Species/Cell Type: Nonhuman, Assay Type: Sister-chromatid exchange (SCE) in vivo, Assay Code: SC3+, Evaluation Type: Evaluation B (Post-1980)) was “active; positive”; the mutagenic call (Species/Cell Type: Saccharomyces cerevisiae, Assay Type: Forward gene mutation, Assay Code: YEF+*, Activation: With metabolic activation, Evaluation Type: Evaluation A (Pre-1980)) is “active; positive”; the mutagenic call (Species/Cell Type: Saccharomyces cerevisiae, Assay Type: Mitotic recombination or gene conversion, Assay Code: YEC+, Evaluation Type: Evaluation A (Pre-1980)) was “active; positive”; the mutagenic call (Species/Cell Type: Saccharomyces cerevisiae, Assay Type: Mitotic recombination or gene conversion, Assay Code: YEH+*, Activation: With metabolic activation, Evaluation Type: Evaluation A (Pre-1980)) is “active; positive”; the mutagenic call under setting [14] was “inactive; negative”; the mutagenic call under setting [8] is “active; positive”. For the same compound, the mutagenic call is “active; positive” (Species/Cell Type: Salmonella typhimurium, Assay Type: Forward and reverse gene mutation, host-mediated assay, Assay Code: HMA+, Evaluation Type: Evaluation A (Pre-1980)); “active; positive” under setting [9]; “active; positive” (Species/Cell Type: Syrian hamster embryo (SHE) cells, Assay Type: Cell transformation, clonal assay, Assay Code: CTC+, Evaluation Type: Evaluation A (Pre-1980)); “active; positive” (Species/Cell Type: Tradescantia species, Assay Type: Gene mutation, Assay Code: TRM+D, Dose Response: With dose response, Evaluation Type: Evaluation A (Pre-1980)). Under setting [7], the call was “active; positive”.

`COc1c(Cl)ccc(Cl)c1C(=O)O`: the mutagenic call is, setting by setting: under setting [11], “active; positive”; under setting [13], “no conclusion”; (Species/Cell Type: Escherichia coli polA (W3119 vs P3478), Assay Type: Rec-assay, DNA effects (bacterial DNA repair), Assay Code: RE1+, Evaluation Type: Evaluation A (Pre-1980)) “active; positive”; (Species/Cell Type: Hordeum vulgare (barley), Assay Type: Chromosome aberrations, Assay Code: HOC+, Evaluation Type: Evaluation A (Pre-1980)) “active; positive”; (Species/Cell Type: Human diploid fibroblasts, Assay Type: Unscheduled DNA synthesis (UDS) in vitro, DNA effects, Assay Code: UDH-, Evaluation Type: Evaluation A (Pre-1980)) “inactive; negative”; under setting [14], “inactive; negative”. Also, under setting [12], the mutagenic call was “inactive; negative”.

Consider `CC(C)OC(N)=O`, for which the mutagenic call (Species/Cell Type: Nonhuman, Assay Type: Sister-chromatid exchange (SCE) in vivo, Assay Code: SC3+D, Dose Response: With dose response, Evaluation Type: Evaluation B (Post-1980)) is “active; positive”.

As to `Oc1cccc(O)c1O`, the mutagenic call was “active; positive” (Species/Cell Type: Allium cepa, Assay Type: Chromosome aberrations, Assay Code: ALC+, Evaluation Type: Evaluation A (Pre-1980)) and “active; positive” under setting [6].
